# US8293790B2, “Pharmaceutical compositions comprising DGLA and benzoyl peroxide and methods of use thereof” (Dignity Sciences Limited, priority 2011, dated 2012)
# Assays:
# [1] = test system: P. acnes; experiment: Agar dilution method: growth of P. acnes and MIC, compounds tested singly; assay type: cell-based, Propionibacterium acnes; set-up: key to Growth Index (+++, ++, +, −) Plate 1 / Growth Index (+++, ++, +, −) Plate 2 / Growth Index (+++, ++, +, −) Plate 3 / Growth Index (+++, ++, +, −) Avg: +++: confluent growth (comparable to control); ++: less confluent growth; +: marked reduction in growth to multiple tiny, single colonies; −: no growth present; details: for MIC: Cutibacterium acnes, compound alone, MIC = concentration with marked reduction (+) of growth, read-out: MIC (mg/mL) as per P-11-0007 or P-11-0008 Addendum A
# Protocol: (§1) Several compounds including fatty acids such as DGLA, 15-OHEPA, and 15-HETrE were tested to determine their capacity to inhibit the growth of P. acnes. In an exemplary method, an agar dilution method was used to determine the minimum inhibitory concentration (MIC) of each tested compound. Briefly, the agar dilution method involved preparing a series of concentrations of each compound (e.g., nicotinamide, benzoyl peroxide, adapalene, metronidazole, DGLA, 15-OHEPA, and 15-HETrE) in a Reinforced Clostridial Agar (RCA) media that facilitates growth of P. acnes under anaerobic conditions. An inoculum of P. acnes was prepared by incubation of P. acnes for approximately seven days at 35-37° C. to achieve a ≧1.0 OD600 inoculum of P. acnes in RCM broth. A portion of this inoculum was then added to the surface of each plate as a 10 μL spot and incubated at 35-37° C. for 72 hours or more. Growth of P. acnes was then observed and compared to control plates in which no compound has been added, and positive inhibition plates prepared with erythromycin. […] The growth of P. acnes in the presence of nicotinamide, benzoyl peroxide, adapalene, metronidazole, DGLA, 15-OHEPA, and 15-HETrE was determined with varying concentrations of the compound (see, Table 2). Next, the MIC was determined as the concentration at which a marked reduction (+) occurs in the appearance of growth on the test plate (as per Clinical and Laboratory Standards Institute M11-A7).
# [2] = test system: P. acnes; experiment: Agar dilution method: growth of P. acnes and MIC, fatty acid compounds in combination with other compounds; assay type: cell-based, Propionibacterium acnes; details: for MIC (mg/mL) with 0.05 mg/mL 15-HETrE spike / MIC (mg/mL) with 0.1 mg/mL 15-OHEPA spike: itself an inhibitory concentration
# Protocol: as §1, with “M11-A7). The compounds tested singly in Example 1 were tested in combination with one another to determine the capacity of the combination to inhibit the growth of P. acnes. In an exemplary method, the MIC was determined for each of the combination as described in Example 1. Briefly, test combinations included DGLA with nicotinamide, benzoyl peroxide, adapalene, or metronidazole; 15-HETrE with nicotinamide, benzoyl peroxide, adapalene, or metronidazole; and 15-OHEPA with nicotinamide, benzoyl peroxide, adapalene, or metronidazole. The tables below show the growth of P. acnes in the presence of 0.4 or 1.0 mg/mL DGLA with varying concentrations of nicotinamide, benzoyl peroxide, adapalene, or metronidazole (Table 3); the growth of P. acnes in the presence of 0.01 or 0.05 mg/mL 15-HETrE with varying concentrations of nicotinamide, benzoyl peroxide, adapalene, or metronidazole (Table 5); and the growth of P. acnes in the presence of 0.5 or 0.1 mg/mL 15-OHEPA with varying concentrations of nicotinamide, benzoyl peroxide, adapalene, or metronidazole (Table 7).” for “M11-A7).”
structure (smiles),measurement,setting,value
Cc1ncc([N+](=O)[O-])n1CCO [Metronidazole],MIC,[1],> 1 mg/mL
same,"Growth Index (+++, ++, +, −) Avg",[1]; compound at 0.2 mg/mL in agar,+++
same,"Growth Index (+++, ++, +, −) Plate 1",[1]; compound at 0.2 mg/mL in agar,+++
same,"Growth Index (+++, ++, +, −) Plate 2",[1]; compound at 0.2 mg/mL in agar,+++
same,"Growth Index (+++, ++, +, −) Plate 3",[1]; compound at 0.2 mg/mL in agar,+++
same,"Growth Index (+++, ++, +, −) Avg",[1]; compound at 0.4 mg/mL in agar,+++
same,"Growth Index (+++, ++, +, −) Plate 1",[1]; compound at 0.4 mg/mL in agar,+++
same,"Growth Index (+++, ++, +, −) Plate 2",[1]; compound at 0.4 mg/mL in agar,+++
same,"Growth Index (+++, ++, +, −) Plate 3",[1]; compound at 0.4 mg/mL in agar,+++
same,"Growth Index (+++, ++, +, −) Avg",[1]; compound at 0.6 mg/mL in agar,+++
same,"Growth Index (+++, ++, +, −) Plate 1",[1]; compound at 0.6 mg/mL in agar,+++
same,"Growth Index (+++, ++, +, −) Plate 2",[1]; compound at 0.6 mg/mL in agar,+++
same,"Growth Index (+++, ++, +, −) Plate 3",[1]; compound at 0.6 mg/mL in agar,+++
same,"Growth Index (+++, ++, +, −) Avg",[1]; compound at 0.8 mg/mL in agar,+++
same,"Growth Index (+++, ++, +, −) Plate 1",[1]; compound at 0.8 mg/mL in agar,+++
same,"Growth Index (+++, ++, +, −) Plate 2",[1]; compound at 0.8 mg/mL in agar,+++
same,"Growth Index (+++, ++, +, −) Plate 3",[1]; compound at 0.8 mg/mL in agar,+++
same,"Growth Index (+++, ++, +, −) Avg",[1]; compound at 1.0 mg/mL in agar,+++
same,"Growth Index (+++, ++, +, −) Plate 1",[1]; compound at 1.0 mg/mL in agar,+++
same,"Growth Index (+++, ++, +, −) Plate 2",[1]; compound at 1.0 mg/mL in agar,++
same,"Growth Index (+++, ++, +, −) Plate 3",[1]; compound at 1.0 mg/mL in agar,+++
same,MIC (mg/mL) with 0.01 mg/mL 15-HETrE spike,[2]; 0.01 mg/mL 15-HETrE spike,>1 mg/mL
same,MIC (mg/mL) with 0.05 mg/mL 15-HETrE spike,[2],<0.2 mg/mL
same,MIC (mg/mL) with 0.05 mg/mL 15-OHEPA spike,[2]; 0.05 mg/mL 15-OHEPA spike,>1 mg/mL
same,MIC (mg/mL) with 0.1 mg/mL 15-OHEPA spike,[2],<0.2 mg/mL
same,MIC (mg/mL) with 0.4 mg/mL dGLA spike,"[2]; 0.4 mg/mL dGLA spike, dGLA supplied by Sigma, cat# E4504",>1 mg/mL
same,MIC (mg/mL) with 1.0 mg/mL dGLA spike,"[2]; 1.0 mg/mL dGLA spike, dGLA supplied by Cayman, cat# 90230",>1 mg/mL
same,growth of P. acnes in combination with 15-HETrE compared with 15-HETrE alone,[2],did not reduce the growth of P. Acnes below that of 15-HETrE used alone
same,growth of P. acnes in combination with 15-OHEPA compared with 15-OHEPA alone,[2],did not reduce the growth of P. Acnes below that of 15 OHEPA used alone
same,growth of P. acnes in combination with DGLA compared with DGLA alone,[2],did not reduce the growth of P. Acnes below that of DGLA used alone
NC(=O)c1cccnc1 [Nicotinamide],MIC,[1],10 to 15 mg/mL
same,"Growth Index (+++, ++, +, −) Avg",[1]; compound at 1 mg/mL in agar,+++
same,"Growth Index (+++, ++, +, −) Plate 1",[1]; compound at 1 mg/mL in agar,+++
same,"Growth Index (+++, ++, +, −) Plate 2",[1]; compound at 1 mg/mL in agar,+++
same,"Growth Index (+++, ++, +, −) Plate 3",[1]; compound at 1 mg/mL in agar,+++
same,"Growth Index (+++, ++, +, −) Avg",[1]; compound at 5 mg/mL in agar,+++
same,"Growth Index (+++, ++, +, −) Plate 1",[1]; compound at 5 mg/mL in agar,+++
same,"Growth Index (+++, ++, +, −) Plate 2",[1]; compound at 5 mg/mL in agar,+++
same,"Growth Index (+++, ++, +, −) Plate 3",[1]; compound at 5 mg/mL in agar,+++
same,"Growth Index (+++, ++, +, −) Avg",[1]; compound at 10 mg/mL in agar,++
same,"Growth Index (+++, ++, +, −) Plate 1",[1]; compound at 10 mg/mL in agar,++
same,"Growth Index (+++, ++, +, −) Plate 2",[1]; compound at 10 mg/mL in agar,++
same,"Growth Index (+++, ++, +, −) Plate 3",[1]; compound at 10 mg/mL in agar,++
same,"Growth Index (+++, ++, +, −) Avg",[1]; compound at 15 mg/mL in agar,+
same,"Growth Index (+++, ++, +, −) Plate 1",[1]; compound at 15 mg/mL in agar,−
same,"Growth Index (+++, ++, +, −) Plate 2",[1]; compound at 15 mg/mL in agar,+
same,"Growth Index (+++, ++, +, −) Plate 3",[1]; compound at 15 mg/mL in agar,+
same,MIC (mg/mL) with 0.05 mg/mL 15-HETrE spike,[2],<1 mg/mL
same,MIC (mg/mL) with 0.1 mg/mL 15-OHEPA spike,[2],<1 mg/mL
same,growth of P. acnes in combination with 15-HETrE compared with 15-HETrE alone,[2],did not reduce the growth of P. Acnes below that of 15-HETrE used alone
same,growth of P. acnes in combination with 15-OHEPA compared with 15-OHEPA alone,[2],did not reduce the growth of P. Acnes below that of 15 OHEPA used alone
same,growth of P. acnes in combination with DGLA compared with DGLA alone,[2],did not reduce the growth of P. Acnes below that of DGLA used alone
